Measurements reported in patent US6984513B2, “Anaerobe targeted enzyme-mediated prodrug therapy” (priority 1994, dated 2006).

Experiments:
SCCVII cells = assay: Growth inhibition of SCCVII cells by 5-FC or 5-FU with or without cell extract from recombinant C. sporogenes
Description: The function of the C. sporogenes-derived cytosine deaminase was tested by assaying its ability to convert the nontoxic 5-fluorocytosine (5-FC) to the toxic 5-fluorouracil (5-FU).

Walker 256 rat carcinoma = conditions: cited from earlier work
Walker carcinoma cells = conditions: cited from earlier work
[1] = system: mouse and human tumor cell lines; conditions: cited from earlier work
[2] = molecular target: nitroreductase enzyme from E. coli (Escherichia coli, UniProt P38489); conditions: cited from earlier work
nitroreductase enzyme from E. coli, sequence (P38489 whole entry): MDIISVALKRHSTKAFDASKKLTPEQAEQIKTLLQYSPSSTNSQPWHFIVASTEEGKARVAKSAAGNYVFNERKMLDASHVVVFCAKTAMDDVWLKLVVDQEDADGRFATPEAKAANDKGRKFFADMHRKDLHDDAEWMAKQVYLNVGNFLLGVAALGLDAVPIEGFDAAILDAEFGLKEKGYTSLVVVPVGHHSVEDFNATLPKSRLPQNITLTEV

SCCVII tumor cells = assay: Cell killing of SCCVII cells exposed to CB1954, NADH and supernatant from wild type or recombinant C. acetobutylicum (colony growth); conditions: 2 hr incubation, NADH 500 μM
Description: The ability of recombinant C. acetobutylicum to activate CB1954 was also tested in vitro, also as described in Example 1. Briefly, recombinant and wild type C. acetobutylicum were inoculated into medium, and after overnight incubation, the cultures were centrifuged and the supernatant collected. The supernatant was added to cultures of SCCVII tumor cells, along with addition of various concentrations of CB1954 in DMSO. After incubation for two hours, the cells were counted by hemocytometer, and appropriate dilutions plated and incubated for colony growth.
In order to test the ability of recombinant C. acetobutylicum to activate CB1954, recombinant and wild type C. acetobutylicum were inoculated into 20 ml of medium. After overnight incubation, the cultures were centrifuged and the supernatant collected and diluted 1:3 with Waymouth's growth medium. […] To these cultures, different concentrations of CB1954 in DMSO were added, and the amount of DMSO adjusted in all of the cultures (including the controls) to 1% DMSO. Controls consisted of cell culture with only the supernatant/cell culture medium mixture. […]
After a 2 hr incubation in air at 37° C., the medium was removed, all the plates were washed 3 times with PBS, trypsinized, the cells counted by hemocytometer, and appropriate dilutions plated and incubated for 10 days in a 5% CO2 incubator at 370 C for colony growth.

[3] = prodrug alone; cited from earlier work
[4] = cited from earlier work
[5] = system: human breast and ovarian cancer cells; conditions: cited from earlier work

## O=c1[nH]cc(F)c(=O)[nH]1 [5-FU, 5-fluorouracil]
SCCVII cells
  effect of cell extract from recombinant C. sporogenes on sensitivity to 5-FU: nor did cell extract from recombinant C. sporogenes affect sensitivity to 5-FU

## Nc1nc(=O)[nH]cc1F [5-FC, 5-fluorocytosine]
SCCVII cells
  effect of cell extract from C. sporogenes transformed with an empty vector on sensitivity: did not affect the sensitivity
  toxicity of 5-FC plus cell extract from recombinant C. sporogenes compared with 5-FU: same toxicity as 5-FU
SCCVII cells; cell extract 5, 10, 20 μg/ml
  increase in cytotoxicity of 5-FC by cell extract from recombinant C. sporogenes expressing cytosine deaminase (factor): 10^4

## NC(=O)c1cc(N2CC2)c([N+](=O)[O-])cc1[N+](=O)[O-] [CB1954, 5-[aziridine-1-yl]-2,4-dinitrobenzamide]
Walker 256 rat carcinoma
  activity against Walker 256 rat carcinoma in vivo: potent activity
Walker carcinoma cells
  activity on Walker carcinoma cells in vitro: potent activity
[1]
  activity against a range of mouse and human tumor cell lines: poor activity
  difference in sensitivity between rat and human cells (factor): 10^4-10^5
[2]
  rate of reduction of CB1954 relative to that of the rat DT diaphorase: 60 times
SCCVII tumor cells
  enhancement of the toxicity of CB1954 by supernatant from transformed C. acetobutylicum: approximately 10 fold

## butylated ammonium salt of the glucuronide conjugate of hydroxyanaline mustard
[3]
  potency relative to hydroxyanaline mustard (times less potent): 10^3 times

## O=C(O)[C@H]1O[C@@H](n2cc(F)c(=O)[nH]c2=O)[C@H](O)[C@@H](O)[C@@H]1O [1-N-β-glucuronide of 5-fluorouracil]
[4]
  stability in vivo: stable in vivo

## glucuronide conjugate of epirubicin
[5]
  toxicity when combined with a Mab-β-glucuronidase conjugate: as toxic as epirubicin
[5]; prodrug alone
  toxicity of the prodrug (fold less toxic): approximately 100 fold
